Test results as given in patent publication US10508104B2, “6-hydroxy-5-(phenyl/heteroarylsulfonyl)pyrimidin-4(1H)-one as APJ agonists” (Bristol-Myers Squibb Company, priority 2016, dated 2019).

Molecular target: human APJ receptor (Homo sapiens (Human), UniProt P35414)
Test: Intracellular cAMP accumulation assay (APJ hcAMP, HTRF)
Assay type: cell-based
Details: HEK293 cells stably expressing human APJ receptor; inhibition of forskolin-mediated cAMP production; read-out: Human APJ cAMP EC50 Potency range
In short: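 HEK293 cells stably expressing human APJ, 5,000 per well, incubated 30 min at rt with compound, […] and 2 μM forskolin. cAMP measured by HTRF against a cAMP standard curve as inhibition of forskolin-driven production. EC50 from variable-slope sigmoidal fit.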

Chain of human APJ receptor (P35414 whole entry): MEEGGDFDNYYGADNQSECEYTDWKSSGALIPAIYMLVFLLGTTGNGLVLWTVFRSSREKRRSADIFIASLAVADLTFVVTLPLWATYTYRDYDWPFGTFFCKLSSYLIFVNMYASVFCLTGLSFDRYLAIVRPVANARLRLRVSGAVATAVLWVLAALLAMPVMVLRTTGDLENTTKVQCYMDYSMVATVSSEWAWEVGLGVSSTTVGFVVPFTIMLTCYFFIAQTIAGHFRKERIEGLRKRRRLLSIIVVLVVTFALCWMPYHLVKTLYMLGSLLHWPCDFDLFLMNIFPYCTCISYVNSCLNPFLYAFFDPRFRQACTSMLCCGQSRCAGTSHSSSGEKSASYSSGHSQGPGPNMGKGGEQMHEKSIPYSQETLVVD

EC50, 0.01 to 10 nM:
CCCCc1nc(=O)c(S(=O)(=O)c2ccc(-c3ccccc3C(=O)NC)cc2)c(O)n1[C@H](c1cccc(C#N)c1)C1CC1 [Example 530, 4′-({2-butyl-1-[(S)-(3-cyanophenyl)(cyclopropyl)methyl]-6-hydroxy-4-oxo-1,4-dihydropyrimidin-5-yl}sulfonyl)-N-methyl-[1,1′-biphenyl]-2-carboxamide]
CCCCc1nc(=O)c(S(=O)(=O)c2ccc(-c3cccc4c3C(=O)NC4)cc2)c(O)n1[C@H](c1cccc(C#N)c1)C1CC1 [Example 524, 3-[(S)-{2-butyl-6-hydroxy-4-oxo-5-[4-(3-oxo-2,3-dihydro-1H-isoindol-4-yl)benzenesulfonyl]-1,4-dihydropyrimidin-1-yl}(cyclopropyl)methyl] benzonitrile]
CCCCc1nc(=O)c(S(=O)(=O)c2ccc(-c3cccn(C)c3=O)cc2)c(O)n1[C@@H](CC)c1ccc(C#N)c(F)c1 [Example 518, 4-[(1S)-1-{2-butyl-6-hydroxy-5-[4-(1-methyl-2-oxo-1,2-dihydropyridin-3-yl)benzenesulfonyl]-4-oxo-1,4-dihydropyrimidin-1-yl}propyl]-2-fluorobenzonitrile]
CCCCc1nc(=O)c(S(=O)(=O)c2ccc(-c3ccncc3C)cc2)c(O)n1[C@@H](CC)C1CCOCC1 [Example 527, 2-butyl-6-hydroxy-5-[4-(3-methylpyridin-4-yl)benzenesulfonyl]-1-[(1S)-1-(oxan-4-yl)propyl]-1,4-dihydropyrimidin-4-one]
CCCCc1nc(=O)c(S(=O)(=O)c2ccc(-c3ccccc3C(=O)NC3CC3)cc2)c(O)n1[C@H](c1cccc(C#N)c1)C1CC1 [Example 533, 4′-({2-butyl-1-[(S)-(3-cyanophenyl)(cyclopropyl)methyl]-6-hydroxy-4-oxo-1,4-dihydropyrimidin-5-yl}sulfonyl)-N-cyclopropyl-[1,1′-biphenyl]-2-carboxamide]
Cc1ncccc1-c1ccc(S(=O)(=O)c2c(O)n([C@H](c3cccc(C#N)c3)C3CC3)c(CC3CC3)nc2=O)cc1 [Example 497, 3-[(S)-cyclopropyl[2-(cyclopropylmethyl)-6-hydroxy-5-[4-(2-methylpyridin-3-yl)benzenesulfonyl]-4-oxo-1,4-dihydropyrimidin-1-yl]methyl]benzonitrile]

Same assay, conditions: human APJ, cAMP accumulation; read-out: Human APJ cAMP EC50 Potency range

EC50, 0.01 to 10 nM:
CCCCc1nc(=O)c(S(=O)(=O)c2ccc(-c3ccncc3C)cc2)c(O)n1[C@@H](CC)c1ccc2c(c1)OCO2 [Example 252, 1-[(1S)-1-(2H-1,3-benzodioxol-5-yl)propyl]-2-butyl-6-hydroxy-5-[4-(3-methylpyridin-4-yl)benzenesulfonyl]-1,4-dihydropyrimidin-4-one]
CCCCc1nc(=O)c(S(=O)(=O)c2ccc(-c3ccnc(F)c3C)cc2)c(O)n1[C@@H](CC)c1cccc(C#N)c1 [Example 230, 3-[(1S)-1-{2-butyl-5-[4-(2-fluoro-3-methylpyridin-4-yl)benzenesulfonyl]-6-hydroxy-4-oxo-1,4-dihydropyrimidin-1-yl}propyl]benzonitrile]

Same assay, conditions: human APJ, intracellular cAMP accumulation; read-out: Human APJ cAMP EC50 Potency range

EC50, 0.01 to 10 nM:
CCCCc1nc(=O)c(S(=O)(=O)C2CCN(CC)CC2)c(O)n1-c1c(OC)cccc1OC [Example 108, 2-butyl-1-(2,6-dimethoxyphenyl)-5-[(1-ethylpiperidin-4-yl)sulfonyl]-6-hydroxy-1,4-dihydropyrimidin-4-one]
CC[C@@H](c1ccccc1)n1c(CCC(C)C)nc(=O)c(S(=O)(=O)c2ccc(-c3ccnc(F)c3C)cc2)c1O [Example 207, 5-[4-(2-fluoro-3-methylpyridin-4-yl)benzenesulfonyl]-6-hydroxy-2-(3-methylbutyl)-1-[(1S)-1-phenylpropyl]-1,4-dihydropyrimidin-4-one]
